Experimental data: patent US20180116216A1, “MICROBICIDAL COMPOSITION CONTAINING GLUTARALDEHYDE AND ORTHOPHENYLPHENOL” (Dow Global Technologies LLC, priority 2015, published 2018)
Like-named read-outs stand apart in the source and are kept apart here.

Tested on: Bacterial Pool
Test: Dow time-kill test in pH 7.4 hand dish-washing liquid, with synergy index (Kull)
Type: cell-based
Conditions: for Concentration required to achieve >=4 Log bacterial counts reduction of tested biocides: 37° C., pool of seven bacteria 1×10^6~1×10^7 CFU/ml in pH 7.4 hand dish-washing liquid, active ingredient basis, unit ppm from b8, not given

SMILES | Concentration required to achieve >=4 Log bacterial counts reduction of tested biocides (24 h) | Concentration for >=4 log bacterial kill (Table 4, Bacterial Pool, 24 hours, glutaraldehyde alone (QA) or in the mixture (Qa), read-out: Minimum Inhibitory Concentration (ppm) Glut) | Minimum Inhibitory Concentration (ppm) Glut (Table 5, Bacterial Pool, 24 hours, glutaraldehyde alone (QA) or in the mixture (Qa)) | Concentration for >=4 log bacterial kill (24 h, read-out: Minimum Inhibitory Concentration (ppm) SOPP) | Minimum Inhibitory Concentration (ppm) SOPP (Table 5, Bacterial Pool, 24 hours, SOPP alone (QB) or in the mixture (Qb))
O=CCCCC=O [Glutaraldehyde, Pentane-1,5-dial] | 100 ppm | 100 µg/mL | 100 ppm | – | –
Oc1ccccc1-c1ccccc1.[Na] [SOPP alone, sodium orthophenylphenol] | 358.5 ppm | – | – | 358 µg/mL | 358.5 ppm
